Test results: patent US20230210838A1, “METHODS FOR TREATING CANCER OR VON-HIPPEL LINDAU DISEASE USING A COMBINATION OF A HIF-2 ALPHA INHIBITOR AND LENVATINIB” (Merck Sharp & Dohme LLC, priority 2020, published 2023)
Several values for one entry are separate records, joined by “and”; a condition that tells them apart may be missing. Identical values can stand only once.

Legend:
[1] = system: UMRC2 human VHL-deficient renal cell carcinoma xenograft; assay: VHL-deficient renal cell carcinoma xenograft tumor model; assay type: in vivo; conditions: for anti-tumor activity compared to the vehicle control group: Day 34, one-way ANOVA with Tukey's multiple comparisons; for Final CRs: complete tumor regressions at end of study; for Final CRs / Final PRs: 10 mice per group; for Final PRs: partial tumor regressions at end of study; for TGI: respective to Vehicle-treated animals at Day 34, MK-6482 3 mg/kg BID oral, Lenvatinib 10 mg/kg QD oral
Description: Prior to treatment initiation, female SCID Beige mice aged 7 weeks weighing between 18 to 21 grams were anesthetized and inoculated subcutaneously on the rear flank with single cell suspension of approximately 95% viable log-phase sub-confluent UMRC2 (5.0×10^6) cells in 0.1 mL of serum-free Dulbecco's Modified Eagle Medium (DMEM) to initiate tumor development. Treatment was initiated when the mean tumor volume of inoculated animals reached approximately 205 mm^3. Mice were pair-matched into 4 treatment groups consisting of 10 mice per group. Treatment groups consisted of: 1) 0.5% methylcellulose+0.5% Tween 80 (Vehicle); 2) MK-6482; 3) Lenvatinib; 4) MK-6482+Lenvatinib. Vehicle and MK-6482 were orally gavage-dosed twice daily (BID) at 3 mg/kg body weight. Lenvatinib was orally dosed once daily (QD) at 10 mg/kg body weight. Treatment began on Day 0 and completed on Day 34. —Caliper measurements of tumors and body weights were captured twice weekly. Statistical analysis was performed by one-way ANOVA with Tukey's multiple comparisons tests at the end of the study, Day 34.
CRs were defined as no observable tumor whereas PRs were tumors whose volume was lower than the original tumor size when treatment began.

[2] = Phase 1 cross-over study of the effect of food on the PK of MK-6482 in healthy volunteers; assay type: in vivo, human; conditions: single dose 120 mg, healthy female adult volunteers
[3] = Phase 2 open-label efficacy and safety study in VHL disease associated RCC; assay type: in vivo, human; conditions: 120 mg QD, 61 participants with VHL disease associated RCC
Excerpt: A Phase 2, open-label efficacy and safety study in participants with VHL disease associated RCC is ongoing. As of 6 Sep.

[4] = FIH Phase 1 study of tolerability, safety, PK of MK-6482 in participants with advanced solid tumors; assay type: in vivo, human
Description: As of 6 Sep. […] 52 additional participants with advanced RCC were treated in an expansion cohort (Part 1B) at the clinical dose of 120 mg QD.

advanced RCC = assay: FIH Phase 1 study, best response by RECIST v1.1 in previously treated advanced RCC; assay type: in vivo, human; conditions: 120 mg QD, 55 participants with previously treated advanced RCC
Description: A FIH Phase 1 study designed to assess the tolerability, safety, PK, and PD properties of MK-6482 in participants with various advanced solid tumors is ongoing. As of 6 Sep. 2019 a total of 104 participants had been enrolled, including 43 participants with various advanced solid tumors in the dose-escalation portion (Part 1A) ranging from 20 to 240 mg QD and 120 mg BID. The MTD was not reached and 2 treatment-related DLTs were observed: 1 Grade 4 event of thrombocytopenia in the 240 mg QD cohort, and 1 Grade 3 event of hypoxia in the 120 mg BID cohort. The 120 mg QD dose was selected for further clinical development based on favorable PK, pharmacodynamic, and safety findings. 52 additional participants with advanced RCC were treated in an expansion cohort (Part 1B) at the clinical dose of 120 mg QD. […] In total, 55 participants with previously treated advanced RCC have been treated in this study with MK-6482 at 120 mg QD (3 patients in the dose-escalation portion of the study and 52 participants in the dose expansion portion of the study). Best response among these 55 participants included 11 participants (20%) with PR and 32 participants (58%) with SD as assessed by RECIST v1.1.

[5] = combined dose escalation and expansion cohorts

Row | Structure (SMILES) | anti-tumor activity compared to the vehicle control group [1] | Final CRs [1] | Final PRs [1] | TGI [1] | delay of time to peak MK-6482 exposure, median difference (Fed—Fasted) [2] | most common adverse event (headache), incidence [2] | effect of high fat, high calorie meal on extent of MK-6482 exposure ([2]; fed vs fasted) | lowering of maximum plasma MK-6482 concentration by high fat, high calorie meal ([2]; fed vs fasted) | most common AE of ≥Grade 3 toxicity (fatigue), share of participants [3] | accumulation from Day 1 to Day 15 ([4]; 120 mg QD expansion cohort (Part 1B)) | treatment-related DLTs observed (number) ([4]; 1 Grade 4 thrombocytopenia in 240 mg QD cohort, 1 Grade 3 hypoxia in 120 mg BID cohort) | most common AEs (anemia, fatigue, dyspnea, nausea, peripheral edema), share of participants [4, 5] | most common Grade 3 AEs (anemia and hypoxia), share of participants [4, 5] | MTD ([4]; dose escalation (Part 1A) 20 to 240 mg QD and 120 mg BID) | Cmax ([4]; human, in vivo, 120 mg QD expansion cohort (Part 1B), Day 15, read-out: mean steady state Cmax) | half-life ([4]; human, in vivo, 120 mg QD expansion cohort (Part 1B), Day 15, read-out: mean steady state t1/2 (converted)) | best response PR, number of participants (advanced RCC) | best response PR, share of participants (advanced RCC) | best response SD, number of participants (advanced RCC) | best response SD, share of participants (advanced RCC)
1 | COc1cc2nccc(Oc3ccc(NC(=O)NC4CC4)c(Cl)c3)c2cc1C(N)=O [Lenvatinib, 4-[3-chloro-4-(cyclopropylaminocarbonyl)aminophenoxy]-7-methoxy-6-quinolinecarboxamide] | significant anti-tumor activity | 0/10 PRs, 0/10 CRs | 0/10 PRs, 0/10 CRs | 83% |  |  |  |  |  |  |  |  |  |  |  |  |  |  |  | 
2 | CS(=O)(=O)c1ccc(Oc2cc(F)cc(C#N)c2)c2c1[C@H](O)[C@H](F)[C@@H]2F [MK-6482, 3-[(1S,2S,3R)-2,3-difluoro-1-hydroxy-7-methylsulfonyl-indan-4-yl]oxy-5-fluoro-benzonitrile] | significant anti-tumor activity | 0/10 | 1/10 | 51% | 2 h | 12.5% | did not affect | approximately 35% | ≥ 5% | 1.5 fold | 2 | ≥ 20% | ≥ 5% | not reached | 1790 ng/mL and 4.67 µM | 924 min | 11 participants | 20% | 32 participants | 58%
